This assay deals with M. tuberculosis H37Rv growth inhibition, 7H9 media. The experiment in a line: M. tuberculosis growth inhibition, HTS (AID 449762).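 On all read-outs here: bacterial growth assessed after seven days of incubation.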 The conditions noted are these: for IC90: measured here: IC90 growth inhibition.

Results filed as inconclusive are left out. Bounds are passed on as bounds.

On to `Cc1nonc1OCCNCCNc1ccc([N+](=O)[O-])c2cccnc12`, for which the IC50 is 6.68 µM and the concentration for an effect of 90% (IC90) worked out at 13.9 µM.

Regarding `c1ccc(-c2ccccc2OCCCCn2ccnc2)cc1`, the IC50 is 12.8 µM and the IC90 came to 25.6 µM. On to `CC1(C)CC(=O)c2c(O)cc(OCc3ccc(Br)cc3)cc2O1`, for which the IC50 was 42 µM and the IC90 came to 67.3 µM. Consider `O=C(CCS(=O)(=O)c1ccc(F)cc1)Nc1nc(-c2ccccn2)cs1`, for which the IC50 was 4.5 µM and the IC90 turned out to be 17.1 µM. For `CCn1c2ccccc2c2cc(CNCc3ccc(OC)cc3OC)ccc21`, in that order: 12.2 µM and 14.1 µM.

As to `COCCn1nnnc1C(c1cc2cc(OC)ccc2[nH]c1=O)N1CCC(Cc2ccccc2)CC1` (stereo unspecified), the IC50 was 89.2 µM and the IC90 is 99.8 µM.

In the case of `Cc1ccc(Cn2c(C(CO)Nc3nc(-c4ccc(F)cc4)cs3)nc3ccccc32)cc1` (stereo unspecified), the IC50 was 42.1 µM and the IC90 stood at 60.2 µM. For `O=c1[nH]c(CSc2cccc[n+]2[O-])nc2ccccc12`, in that order: 96.4 µM and more than 100 µM. Turning to `CCOC(=O)CSc1ccc(C(=O)Nc2ccc(OC)cc2)cn1`, the IC50 was less than 0.2 µM and the concentration for an effect of 90% (IC90) is more than 100 µM.

As for `FC(F)(F)c1ccc(Nc2nnnc3ccccc23)cc1`, the IC50 was 90.2 µM and the IC90 was 99.6 µM. For `O=[N+]([O-])c1cc(C=Nc2ccc3ccccc3c2)ccc1Br`, in that order: 33.5 µM and 45.6 µM. Turning to `COc1ccc(C)c2sc(N(CCN(C)C)C(=O)/C=C/c3cccs3)nc12`, the IC50 is 25.2 µM and the IC90 turned out to be 35.9 µM. For `O=C(Nc1ccccc1)C1=C[C@@H](C2CCCCC2)C[C@@H](OCc2ccc(CO)cc2)O1`, in that order: 45 µM and 50.2 µM. For `COC(=O)c1ccc(/C=C/c2c(-c3ccsc3)oc3ccc(N4CCOCC4)cc23)cc1`, in that order: 21.2 µM and 41.2 µM. For `O=c1c(O)c(-c2cccs2)oc2ccccc12`, in that order: 12 µM and more than 100 µM. Regarding `CN(c1ccccc1)S(=O)(=O)c1cccc(C(=O)NCc2ccccc2CN2CCCC2)c1`, the half-maximal inhibitory concentration (IC50) is 48.8 µM and the IC90 was 55.4 µM. For `CO/N=C(\Cn1ncc(N2CCCC2)c(Cl)c1=O)c1ccc(Cl)cc1`, the half-inhibitory concentration (IC50) is 16.9 µM and the concentration for an effect of 90% (IC90) turned out to be 27.5 µM. For `COC(=O)CSc1ncnc2c1sc1nc3c(cc12)COC(C)(C)C3`, in that order: 3.68 µM and 17.3 µM. Regarding `CCOc1ccc(-c2cc(C)[n+](CCc3ccc(OC)c(OC)c3)c(-c3ccc(OCC)cc3)c2)cc1`, the IC50 was 0.92 µM and the IC90 was found to be 1.8 µM. For `C=CC[N@@+]12CC[C@]34c5ccccc5N5/C=C6\C7N(/C=C(\C53)[C@@H](C[C@@H]41)/C(=C/CO)C2)c1ccccc1[C@@]71CC[N@@+]2(CC=C)C/C(=C\CO)[C@@H]6C[C@@H]12` (stereo partly specified), in that order: 56.7 µM and more than 100 µM. For `Cc1ccc(C(=O)C[n+]2cc(-c3ccc(C)cc3)n3c2CCCCC3)cc1`, the half-maximal inhibitory concentration (IC50) is 15.3 µM and the IC90 came out at 19.8 µM. Turning to `CCOc1ccc(N/C(C)=C/C(=O)c2ccc3c(c2)OCCO3)cc1`, the IC50 is 11.6 µM and the 90% effect concentration (IC90) is 47.2 µM.

In the case of `NC(=S)N=Nc1ccc(NN=C(N)N)cc1`, the IC50 is 16.9 µM and the IC90 amounted to 24.7 µM. Regarding `Cc1ccc(N/C=C2\C(=O)C3(C)CCC2C3(C)C)cc1C` (stereo unspecified), the concentration for an effect of 90% (IC90) is more than 100 µM. On to `Cc1cc(C)n(-c2nc(NCCN(C)C)c3c4c(sc3n2)CCCC4)n1`, for which the half-inhibitory concentration (IC50) was 14.6 µM and the IC90 was found to be 18.6 µM.

On to `O=C(Nc1ccc(N2CCN(C(=O)c3ccco3)CC2)cc1)C(c1ccccc1)c1ccccc1`, for which the IC50 is 12.1 µM and the IC90 was 22.6 µM. Consider `CCOC1OC(=O)C(Cl)=C1Nc1ccccc1C` (stereo unspecified), for which the IC50 is 2.91 µM and the concentration for an effect of 90% (IC90) was determined as 6.18 µM. For the compound `Cc1cc(C)c2ccc(NN)nc2c1O`, the IC50 was 3.6 µM and the IC90 turned out to be 4.95 µM.

Take `Cc1ccc(Cl)cc1N1CCN(CC(=O)NC2CCCc3ccccc32)CC1` (stereo unspecified): the IC50 was 31.5 µM and the IC90 turned out to be 46.1 µM. For `O=C(Nc1ccc2nsnc2c1)NC1CCCCC1`, in that order: 26 µM and more than 50 µM. Turning to `Clc1ccc(-c2cc3ccccc3nc2N2CCCC2)cc1`, the 50% inhibitory concentration (IC50) is 69.2 µM and the IC90 was more than 100 µM. Take `CCCc1cc(C(N)=S)ccn1`: the IC50 is 6.61 µM and the concentration for an effect of 90% (IC90) was more than 100 µM.

For the compound `O=C1C2C(C(=O)N1/N=C/c1ccc([N+](=O)[O-])o1)C1C=CC2C12CC2` (stereo unspecified), the IC50 was 19 µM and the IC90 was determined as 29.6 µM.

Turning to `CCCOc1ccc2oc(=O)c3c(c2c1)CCCN3C(=O)CN1CCN(c2ncccn2)CC1`, the IC50 was 20.8 µM and the IC90 amounted to 33.8 µM.

Turning to `COc1ccccc1/C=C/C(=O)Nc1ccc(S(=O)(=O)Nc2cc(C)on2)cc1`, the 50% inhibitory concentration (IC50) is 5.01 µM and the IC90 was determined as 17.3 µM. For `CCOC(=O)c1c(CC(C)C)csc1NC(=O)CCl`, in that order: less than 0.2 µM and 7.5 µM. In the case of `CNc1ccc2nc3ccccc3[n+](C)c2c1`, the concentration for half-maximal inhibition (IC50) is 1.29 µM and the 90% effect concentration (IC90) worked out at 2.34 µM. Consider `CCCOc1ccc(-c2cnc(SCC(N)=O)nc2N)cc1`, for which the IC50 is 12.1 µM and the IC90 turned out to be 50.2 µM. For `O=c1c2cc(Br)cc(Br)c2oc2nc3n(c(=O)c12)CCCS3`, in that order: 5.87 µM and 13.1 µM. For `COC(OC)c1ccnc(-c2ccc(OC(=O)c3cccs3)cc2)n1`, in that order: 62.4 µM and more than 100 µM. For `CC1=NN(C(N)=S)C(=O)C1N=Nc1ccc(C)c(Br)c1` (stereo unspecified), in that order: 11.5 µM and 19.1 µM. On to `CCOc1cc(/C=N\NC(=O)Cn2nc([N+](=O)[O-])cc2C)ccc1OCc1cccc2ccccc12`, for which the 90% effect concentration (IC90) was more than 100 µM. For `O=C(Oc1c(Cl)cc(Cl)c2cccnc12)c1cccs1`, the half-inhibitory concentration (IC50) is 0.89 µM and the IC90 amounted to 1.24 µM. With `Cc1ccsc1/C=C1\SC(N2CCOCC2)=NC1=O`, the IC50 was 21.9 µM and the IC90 amounted to 34.1 µM.

As for `Cc1cc(-c2n[nH]c(=S)n2/N=C/C(Br)=C/c2ccccc2)n[nH]1`, the IC50 is 2.08 µM and the 90% effect concentration (IC90) is 5.63 µM.

Take `c1ccc(CCN2CCN(c3ncnc4c3cnn4-c3ccccc3)CC2)cc1`: the IC50 was 21.3 µM and the 90% effect concentration (IC90) was 43 µM.

Turning to `O=C(N/N=C/c1ccc([N+](=O)[O-])o1)c1sc2ccccc2c1Cl`, the IC50 is 2.65 µM and the IC90 came to 4.6 µM. For `CC(Sc1nnc(NC2CCCCC2)s1)C(=O)Nc1ccc2c(c1)C(=O)c1ccccc1C2=O` (stereo unspecified), in that order: 11.5 µM and 12.6 µM. Regarding `CN1CCN(/N=C/c2c3ccccc3c(Cl)c3ccccc23)CC1`, the IC50 is 77.7 µM and the concentration for an effect of 90% (IC90) is more than 100 µM. Turning to `OC(CNCCc1ccc(C(F)(F)F)cc1)COC(c1ccccc1)c1ccccc1` (stereo unspecified), the IC50 is 16.7 µM and the IC90 worked out at 21.2 µM.

As to `OC(CN1CCN(c2ccccn2)CC1)Cn1c2ccccc2c2ccccc21` (stereo unspecified), the IC50 was 36.1 µM and the concentration for an effect of 90% (IC90) amounted to 51.7 µM. As to `Cc1nn(-c2ccccc2)c(Cl)c1C(=O)Nc1nnc(C2CCCCC2)s1`, the IC50 is 17.3 µM and the concentration for an effect of 90% (IC90) is more than 50 µM. As to `CCN1CCN(c2oc(COc3ccc(-c4ccccc4)cc3)nc2C#N)CC1`, the IC50 was 43.4 µM and the IC90 amounted to 48.4 µM. For `COc1ccc(-c2c[n+]3c4n2CCCCC4=C(c2ccccc2)C3)cc1`, in that order: 35.5 µM and 43.7 µM.

Regarding `O=C(/C=C/c1ccc(O)cc1)c1ccc(NC2=C(N3CCCCC3)C(=O)c3ccccc3C2=O)cc1`, the IC50 is 12 µM and the IC90 was found to be 13.6 µM. As for `CCOC(=O)c1ccc(Oc2nc(NC(C)(C)C)nc(N(C)C)n2)cc1`, the IC50 was 21.3 µM and the IC90 stood at 82.2 µM. `Fc1ccc(N/N=C2/CC(c3ccccc3)Oc3ccccc32)c(F)c1` (stereo unspecified) gave an IC90 of more than 100 µM. `Clc1ccc(CCC(Cn2ccnc2)Sc2c(Cl)cccc2Cl)cc1` (stereo unspecified): the half-maximal inhibitory concentration (IC50) is 7.79 µM and the IC90 amounted to 14.3 µM.

As to `CN1CCN(C2=Cc3ccc(Cl)cc3Sc3ccc(F)cc32)CC1`, the IC50 was 22.7 µM and the IC90 came out at 32.9 µM. For `CN(C(=O)c1cccc(Nc2ccc(-c3ccc4c(c3)OCCO4)nn2)c1)C1CCCCC1`, in that order: 50.8 µM and more than 100 µM. `CCc1noc(C)c1C(=O)Nc1nc(-c2ccc(F)cc2)c(C)s1`: the half-inhibitory concentration (IC50) was 8.8 µM and the IC90 worked out at 36.9 µM.

As to `COc1ccc(SC[C@H](Cc2ccccc2)N2CCN(CCc3ccccc3)CCC2=O)cc1`, the IC50 was 36.8 µM and the IC90 amounted to 46.7 µM.

For the compound `Cc1ccc(C(=O)OCc2nnc(-c3ccccc3)o2)s1`, the IC50 was 19 µM and the IC90 stood at 33.5 µM. For `Cc1ccc(CNc2ccc3c(c2)ncn3C(C)(C)C)cc1`, the IC50 is 7.41 µM and the IC90 is 14.8 µM.

Regarding `CCOC(=O)CSc1nnc(-c2ccc(S(=O)(=O)NCc3cccs3)cc2)o1`, the IC50 was 2.55 µM and the concentration for an effect of 90% (IC90) turned out to be 4.55 µM. For `CCCc1cnc(NCCNCC(O)COc2ccc(Cl)c(Cl)c2)nc1` (stereo unspecified), in that order: 17.1 µM and 22.1 µM. On to `Cc1ccc(/C(N)=N/OC(=O)N2c3ccccc3Sc3ccccc32)cc1`, for which the IC50 is 52.4 µM and the IC90 was more than 100 µM. For `CCCCN1C(=N)N([C@@H](CCC)CN2CCC[C@H]2CN2C(N)=NC[C@@H]2Cc2ccccc2)C[C@H]1Cc1ccccc1`, in that order: 12.8 µM and 18.2 µM. On to `COC(=O)c1cc(Sc2cccc(Cl)c2Cl)ccn1`, for which the IC50 was 20.6 µM and the 90% effect concentration (IC90) was found to be 30.7 µM. As for `C=C1c2c(Cl)ccc(O)c2C(O)=C2C(=O)[C@]3(O)C(O)=C(C(N)=O)C(=O)[C@@H](N(C)C)[C@@H]3[C@@H](O)C12` (stereo partly specified), the IC50 was 1.06 µM and the IC90 was determined as 4.88 µM. Regarding `COc1ccc(-c2csc3nc(-c4ccccc4OC)oc(=O)c23)cc1`, the IC50 was less than 0.2 µM and the 90% effect concentration (IC90) stood at 24.1 µM.

As for `COc1ccc([C@H]2CC(=O)C=C(c3ccc4c5c(cccc35)CC4)C2)cc1`, the IC50 is 11 µM and the IC90 stood at 23 µM.

The IC50 is the concentration that gives 50% inhibition. Usually IC90 stands for the point of the concentration-response curve where the effect stands at 90%.

Values taken from PubChem BioAssay AID449762 (Southern Research Specialized Biocontainment Screening …, 2010).
